US20150284674A1, “CAMPYLOBACTER BACTERIA AND DETECTION” (priority 2012, published 2015)
≈ marks a conversion by molar mass, not a printed value. Where “and” joins values, the source holds several entries; their conditions need not be identical. Equal values may be shown once.

System: Campylobacter novel strains
Assay: Antimicrobial susceptibility testing by agar dilution method (MIC);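 also: agar dilution MIC on HBA, used in place of the BSAC-recommended Iso-sensitest agar, across a panel of 14 antimicrobials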
Details: for Distribution (%) of MIC (μg/ml) 0.03: % of novel strains with MIC 0.03 μg/ml; for Distribution (%) of MIC (μg/ml) 0.06: % of novel strains with MIC 0.06 μg/ml; for Distribution (%) of MIC (μg/ml) 0.13: % of novel strains with MIC 0.13 μg/ml; for Distribution (%) of MIC (μg/ml) 0.25: % of novel strains with MIC 0.25 μg/ml; for Distribution (%) of MIC (μg/ml) 1: % of novel strains with MIC 1 μg/ml; for Distribution (%) of MIC (μg/ml) 2: % of novel strains with MIC 2 μg/ml; for Distribution (%) of MIC (μg/ml) 4: % of novel strains with MIC 4 μg/ml; for Distribution (%) of MIC (μg/ml) 8: % of novel strains with MIC 8 μg/ml; for Distribution (%) of MIC (μg/ml) 32: % of novel strains with MIC 32 μg/ml; for Distribution (%) of MIC (μg/ml) 64: % of novel strains with MIC 64 μg/ml
[1] = Campylobacter novel strains, agar dilution on HBA

Description: Antimicrobial susceptibility testing was performed using the agar dilution method for the Campylobacter novel strains against 14 antimicrobials. […] As the strains were unable to grow on the Iso-sensitest agar (ISA) recommended by the BSAC guidelines, HBA (Table 1) was used as an alternative media.

With `CC1(C)S[C@@H]2[C@H](NC(=O)[C@H](N)c3ccccc3)C(=O)N2[C@H]1C(=O)O` [Ampicillin] the MIC50 (Campylobacter) was 1 µg/mL (≈ 2.86 µM) and the MIC90 (Campylobacter) was 2 µg/mL (≈ 5.72 µM).
`CCN1CCN(C(=O)N[C@@H](C(=O)N[C@@H]2C(=O)N3C(C(=O)O)=C(CSc4nnnn4C)CS[C@H]23)c2ccc(O)cc2)C(=O)C1=O` [Cefoperazone] gave an MIC50 (Campylobacter) of 64 µg/mL (≈ 99.1 µM) and an MIC90 (Campylobacter) of 64 µg/mL (≈ 99.1 µM).
`O=C(N[C@H](CO)[C@H](O)c1ccc([N+](=O)[O-])cc1)C(Cl)Cl` [Chloramphenicol] gave an MIC50 (Campylobacter) of 4 µg/mL (≈ 12.4 µM) and an MIC90 (Campylobacter) of 8 µg/mL (≈ 24.8 µM).
Compound `O=C(O)c1cn(C2CC2)c2cc(N3CCNCC3)c(F)cc2c1=O` [Ciprofloxacin] has an MIC50 (Campylobacter) of 0.06 µg/mL (≈ 0.181 µM) and an MIC90 (Campylobacter) of 0.06 µg/mL (≈ 0.181 µM).
`CC[C@H]1OC(=O)[C@H](C)[C@@H](O[C@H]2C[C@@](C)(OC)[C@@H](O)[C@H](C)O2)[C@H](C)[C@@H](O[C@@H]2O[C@H](C)C[C@H](N(C)C)[C@H]2O)[C@](C)(O)C[C@@H](C)C(=O)[C@H](C)[C@@H](O)[C@]1(C)O` [Ertythromycin, Erythromycin] was tested, and the MIC50 (Campylobacter) was 1 µg/mL (≈ 1.36 µM) and the MIC90 (Campylobacter) was 2 µg/mL (≈ 2.73 µM).
Work on `NC[C@H]1O[C@H](O[C@H]2[C@H](O)[C@@H](O[C@H]3O[C@H](CO)[C@@H](O)[C@H](N)[C@H]3O)[C@H](N)C[C@@H]2N)[C@H](O)[C@@H](O)[C@@H]1O` [Kanamycin] yielded an MIC50 (Campylobacter) of 4 µg/mL (≈ 8.26 µM) and an MIC90 (Campylobacter) of 4 µg/mL (≈ 8.26 µM).
Work on `[H]/N=C(/N)N[C@H]1[C@H](O)[C@@H](O)[C@H](O[C@@H]2O[C@@H](C)[C@](O)(C=O)[C@H]2O[C@@H]2O[C@@H](CO)[C@H](O)[C@@H](O)[C@@H]2NC)[C@@H](N/C(N)=N\[H])[C@@H]1O` [Streptomycin] yielded an MIC50 (Campylobacter) of 1 µg/mL (≈ 1.72 µM) and an MIC90 (Campylobacter) of 1 µg/mL (≈ 1.72 µM).
`CN(C)[C@@H]1C(O)=C(C(N)=O)C(=O)[C@@]2(O)C(O)=C3C(=O)c4c(O)cccc4[C@@](C)(O)[C@H]3C[C@@H]12` [Tetracycline] gave an MIC50 (Campylobacter) of 1 µg/mL (≈ 2.25 µM) and an MIC90 (Campylobacter) of 64 µg/mL (≈ 144 µM).
`C=C[C@]1(C)C[C@@H](OC(=O)CSCCN(CC)CC)[C@]2(C)[C@H](C)CC[C@]3(CCC(=O)[C@H]32)[C@@H](C)[C@@H]1O` [Tiamulin] gave an MIC50 (Campylobacter) of 2 µg/mL (≈ 4.05 µM) and an MIC90 (Campylobacter) of 2 µg/mL (≈ 4.05 µM).
In the case of Colistin, the “Distribution (%) of MIC (μg/ml) 0.03” value (agar dilution on HBA) is reported as 0%, the “Distribution (%) of MIC (μg/ml) 0.06” value (agar dilution on HBA) is reported as 0% and the “Distribution (%) of MIC (μg/ml) 0.13” value (agar dilution on HBA) is reported as 0%. The “Distribution (%) of MIC (μg/ml) 0.25” value (agar dilution on HBA) was 0%, the “Distribution (%) of MIC (μg/ml) 0.50” value (% of novel strains with MIC 0.50 μg/ml, agar dilution on HBA) was 0% and the “Distribution (%) of MIC (μg/ml) 1” value (agar dilution on HBA) was 0%. For the same compound, the “Distribution (%) of MIC (μg/ml) 2” value (agar dilution on HBA) was 0%, the “Distribution (%) of MIC (μg/ml) 4” value (agar dilution on HBA) was 8.70% and the “Distribution (%) of MIC (μg/ml) 8” value (agar dilution on HBA) was 73.91%. The “Distribution (%) of MIC (μg/ml) 32” value (agar dilution on HBA) was 13.04%, the “Distribution (%) of MIC (μg/ml) 64” value (agar dilution on HBA) was 0% and the MIC50 [1] was 8 µg/mL. For the same compound, the MIC90 [1] was 32 µg/mL.
In the case of Gentamycin, the “Distribution (%) of MIC (μg/ml) 0.03” value (agar dilution on HBA) is reported as 0%, the “Distribution (%) of MIC (μg/ml) 0.06” value (agar dilution on HBA) is reported as 0% and the “Distribution (%) of MIC (μg/ml) 0.13” value (agar dilution on HBA) is reported as 0%. For the same compound, the “Distribution (%) of MIC (μg/ml) 1” value (agar dilution on HBA) was 0%, the “Distribution (%) of MIC (μg/ml) 2” value (agar dilution on HBA) was 0% and the “Distribution (%) of MIC (μg/ml) 4” value (agar dilution on HBA) was 0%. The “Distribution (%) of MIC (μg/ml) 8” value (agar dilution on HBA) was 0%, the “Distribution (%) of MIC (μg/ml) 32” value (agar dilution on HBA) was 0% and the “Distribution (%) of MIC (μg/ml) 64” value (agar dilution on HBA) was 0%. The MIC50 [1] was 0.5 µg/mL and 0.50 µg/mL and the MIC90 [1] was 0.5 µg/mL and 0.50 µg/mL.
With Polymyxin B the “Distribution (%) of MIC (μg/ml) 0.03” value (agar dilution on HBA) was 0%, the “Distribution (%) of MIC (μg/ml) 0.06” value (agar dilution on HBA) was 0% and the “Distribution (%) of MIC (μg/ml) 0.13” value (agar dilution on HBA) was 0%. The “Distribution (%) of MIC (μg/ml) 0.25” value (agar dilution on HBA) was 0%, the “Distribution (%) of MIC (μg/ml) 1” value (agar dilution on HBA) was 0% and the “Distribution (%) of MIC (μg/ml) 2” value (agar dilution on HBA) was 0%. For the same compound, the “Distribution (%) of MIC (μg/ml) 4” value (agar dilution on HBA) was 21.74%, the “Distribution (%) of MIC (μg/ml) 8” value (agar dilution on HBA) was 56.52% and the “Distribution (%) of MIC (μg/ml) 32” value (agar dilution on HBA) was 8.70%. For the same compound, the “Distribution (%) of MIC (μg/ml) 64” value (agar dilution on HBA) was 0%, the MIC50 [1] was 8 µg/mL and the MIC90 [1] was 16 µg/mL.
